Reference: ChEMBL document CHEMBL1909046, “DrugMatrix in vitro pharmacology data”
Further: in other assays of this panel Not Active means under 50% inhibition at 10 µM.

What follows are molecules tested against T1, Cytochrome P450 2C19 (Homo sapiens, UniProt P33261) (assay: not given). Conditions: bti-tn-5b1-4.
T1 sequence (P33261 whole entry): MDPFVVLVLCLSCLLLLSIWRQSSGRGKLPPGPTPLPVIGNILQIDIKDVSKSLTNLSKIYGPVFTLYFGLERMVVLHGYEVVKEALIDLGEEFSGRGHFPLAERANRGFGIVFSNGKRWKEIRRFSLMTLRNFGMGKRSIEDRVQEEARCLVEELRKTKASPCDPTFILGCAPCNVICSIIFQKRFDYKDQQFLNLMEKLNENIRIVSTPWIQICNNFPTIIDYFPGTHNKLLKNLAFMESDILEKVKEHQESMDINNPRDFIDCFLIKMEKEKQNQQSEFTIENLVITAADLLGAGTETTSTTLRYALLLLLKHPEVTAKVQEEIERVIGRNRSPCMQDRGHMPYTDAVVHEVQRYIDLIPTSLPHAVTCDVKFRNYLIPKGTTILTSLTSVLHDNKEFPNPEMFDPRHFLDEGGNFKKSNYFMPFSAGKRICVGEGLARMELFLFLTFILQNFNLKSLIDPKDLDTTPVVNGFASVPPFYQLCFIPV
In the case of `CCOC(=O)[C@H](CCc1ccccc1)N[C@@H](C)C(=O)N1[C@H](C(=O)O)C[C@@H]2CCC[C@@H]21`, the IC50 is reported as “Not Active” and the Ki is reported as “Not Active”.
`CC(C)(C)NC(=O)[C@@H]1CN(Cc2cccnc2)CCN1C[C@@H](O)C[C@@H](Cc1ccccc1)C(=O)N[C@H]1c2ccccc2C[C@H]1O.O` was tested, and the IC50 was “Not Active” and the Ki was “Not Active”.
In the case of `CC1(C)[C@H]2CC[C@]1(C)C(=O)C2` [(-)-CAMPHOR], the IC50 is reported as “Not Active” and the Ki is reported as “Not Active”.
`CC(C)(C)NCC(O)c1ccc(O)c(CO)c1` (centres undefined) [ALBUTEROL] was tested, and the IC50 was “Not Active” and the Ki was “Not Active”.
In the case of `COc1ccc(CCN2CCC(Nc3nc4ccccc4n3Cc3ccc(F)cc3)CC2)cc1` [ASTEMIZOLE], the IC50 is reported as “Not Active” and the Ki is reported as “Not Active”.
`CN(C)CCCN1c2ccccc2CCc2ccc(Cl)cc21` [CLOMIPRAMINE] was tested, and the IC50 was “Not Active” and the Ki was “Not Active”.
With `O=C(CCCN1CCC(O)(c2ccc(Cl)cc2)CC1)c1ccc(F)cc1` [HALOPERIDOL] the IC50 was “Not Active” and the Ki was “Not Active”.
In the case of `Oc1c(I)cc(I)c2cccnc12` [IODOQUINOL], the IC50 is reported as “Not Active” and the Ki is reported as “Not Active”.
`NNC(=O)c1ccncc1` [ISONIAZID] was tested, and the IC50 was “Not Active” and the Ki was “Not Active”.
`CC1=C(/C=C/C(C)=C/C=C/C(C)=C\C(=O)O)C(C)(C)CCC1` [ISOTRETINOIN] was tested, and the IC50 was “Not Active” and the Ki was “Not Active”.
`CO[C@@H]1[C@@H](O[C@@H]2O[C@H](C)[C@@H](O[C@H]3C[C@@](C)(O)[C@@H](OC(=O)CC(C)C)[C@H](C)O3)[C@H](N(C)C)[C@H]2O)[C@@H](CC=O)C[C@@H](C)[C@@H](O)/C=C/C=C/C[C@@H](C)OC(=O)C[C@H]1O` [KITASAMYCIN] was tested, and the IC50 was “Not Active” and the Ki was “Not Active”.
In the case of `Nc1nnc(-c2cccc(Cl)c2Cl)c(N)n1` [LAMOTRIGINE], the IC50 is reported as “Not Active” and the Ki is reported as “Not Active”.
With `CCC[C@@H]1C[C@@H](C(=O)N[C@@H]([C@H]2O[C@H](SC)[C@H](O)[C@@H](O)[C@H]2O)[C@@H](C)O)N(C)C1` [LINCOMYCIN] the IC50 was “Not Active” and the Ki was “Not Active”.
For `NCCCC[C@H](N[C@@H](CCc1ccccc1)C(=O)O)C(=O)N1CCC[C@H]1C(=O)O` [LISINOPRIL ANHYDROUS], the IC50 was “Not Active” and the Ki was “Not Active”.
In the case of `COS(C)(=O)=O` [METHANESULFONIC ACID METHYL ESTER], the IC50 is reported as “Not Active” and the Ki is reported as “Not Active”.
`COC(=O)c1ccc(O)cc1` [METHYLPARABEN] was tested, and the IC50 was “Not Active” and the Ki was “Not Active”.
`C[C@](N)(Cc1ccc(O)cc1)C(=O)O` [METYROSINE] was tested, and the IC50 was “Not Active” and the Ki was “Not Active”.
For `CN1CCN2c3ccccc3Cc3ccccc3C2C1` (centres undefined) [MIANSERIN], the IC50 was “Not Active” and the Ki was “Not Active”.
With `Clc1ccc(C(c2ccccc2Cl)C(Cl)Cl)cc1` (centres undefined) [MITOTANE] the IC50 was “Not Active” and the Ki was “Not Active”.
For `CC(C)(O)c1ccccc1CC[C@@H](SCC1(CC(=O)O)CC1)c1cccc(/C=C/c2ccc3ccc(Cl)cc3n2)c1` [MONTELUKAST], the IC50 was “Not Active” and the Ki was “Not Active”.
For `COc1c(C)c2c(c(O)c1C/C=C(\C)CCC(=O)OCCN1CCOCC1)C(=O)OC2` [MYCOPHENOLATE MOFETIL], the IC50 was “Not Active” and the Ki was “Not Active”.
In the case of `CC(=O)[C@H]1CC[C@H]2[C@@H]3CCC4=CC(=O)CC[C@]4(C)[C@H]3CC[C@]12C` [PROGESTERONE], the IC50 is reported as “Not Active” and the Ki is reported as “Not Active”.
With `NC(=O)c1ncn([C@@H]2O[C@H](CO)[C@@H](O)[C@H]2O)n1` [RIBAVIRIN] the IC50 was “Not Active” and the Ki was “Not Active”.
With `O=[N+]([O-])c1cc([As](=O)(O)O)ccc1O` [ROXARSONE] the IC50 was “Not Active” and the Ki was “Not Active”.
With `CC[C@H]1OC(=O)[C@H](C)[C@@H](O[C@H]2C[C@@](C)(OC)[C@@H](O)[C@H](C)O2)[C@H](C)[C@@H](O[C@@H]2O[C@H](C)C[C@H](N(C)C)[C@H]2O)[C@](C)(O)C[C@@H](C)/C(=N\OCOCCOC)[C@H](C)[C@@H](O)[C@]1(C)O` [ROXITHROMYCIN] the IC50 was “Not Active” and the Ki was “Not Active”.
With `NC(=O)c1ccccc1O` [SALICYLAMIDE] the IC50 was “Not Active” and the Ki was “Not Active”.
With `Cc1ncc([N+](=O)[O-])n1CC(C)O` (centres undefined) [SECNIDAZOLE] the IC50 was “Not Active” and the Ki was “Not Active”.
`CN(N=O)C(=O)N[C@@H](C=O)[C@@H](O)[C@H](O)[C@H](O)CO` [STREPTOZOCIN] was tested, and the IC50 was “Not Active” and the Ki was “Not Active”.
With `Nc1ccc(S(=O)(=O)Nc2ccnn2-c2ccccc2)cc1` [SULFAPHENAZOLE] the IC50 was “Not Active” and the Ki was “Not Active”.
`CC1CN(c2cc3c(cc2F)c(=O)c(C(=O)O)cn3-c2ccc(F)cc2F)CCN1` (centres undefined) [TEMAFLOXACIN] was tested, and the IC50 was “Not Active” and the Ki was “Not Active”.
With `CC(C)(C)NCC(O)c1cc(O)cc(O)c1` (centres undefined) [TERBUTALINE] the IC50 was “Not Active” and the Ki was “Not Active”.
For `CN(C)[C@@H]1C(O)=C(C(N)=O)C(=O)[C@@]2(O)C(O)=C3C(=O)c4c(O)cccc4[C@@](C)(O)[C@H]3C[C@@H]12` [TETRACYCLINE], the IC50 was “Not Active” and the Ki was “Not Active”.
In the case of `Cc1ccc(C(=O)C(C)CN2CCCCC2)cc1` (centres undefined) [TOLPERISONE], the IC50 is reported as “Not Active” and the Ki is reported as “Not Active”.
For `COc1cccc(C2(O)CCCCC2CN(C)C)c1` (centres undefined) [TRAMADOL], the IC50 was “Not Active” and the Ki was “Not Active”.
In the case of `NC(CO)(CO)CO` [TROMETHAMINE], the IC50 is reported as “Not Active” and the Ki is reported as “Not Active”.
With `CN1[C@@H]2CC[C@H]1C[C@@H](OC(=O)c1c[nH]c3ccccc13)C2` [TROPISETRON] the IC50 was “Not Active” and the Ki was “Not Active”.
With `COc1cc(C(=O)NC2CCCNC2)cc(OC)c1OC` (centres undefined) [TROXIPIDE] the IC50 was “Not Active” and the Ki was “Not Active”.
With `CC(C)[C@H](N)C(=O)OCCOCn1cnc2c(=O)nc(N)[nH]c21` [VALACYCLOVIR] the IC50 was “Not Active” and the Ki was “Not Active”.
`CN[C@H](CC(C)C)C(=O)N[C@H]1C(=O)N[C@@H](CC(N)=O)C(=O)N[C@H]2C(=O)N[C@H]3C(=O)N[C@H](C(=O)N[C@H](C(=O)O)c4cc(O)cc(O)c4-c4cc3ccc4O)[C@H](O)c3ccc(c(Cl)c3)Oc3cc2cc(c3O[C@@H]2O[C@H](CO)[C@@H](O)[C@H](O)[C@H]2O[C@H]2C[C@](C)(N)[C@H](O)[C@H](C)O2)Oc2ccc(cc2Cl)[C@H]1O` [VANCOMYCIN] was tested, and the IC50 was “Not Active” and the Ki was “Not Active”.
With `COc1ccc(C(CN(C)C)C2(O)CCCCC2)cc1` (centres undefined) [VENLAFAXINE] the IC50 was “Not Active” and the Ki was “Not Active”.
In the case of IVERMECTIN, the IC50 is reported as “Not Active” and the Ki is reported as “Not Active”.

Each molecule was assayed against T2, Androgen receptor (Rattus norvegicus, UniProt P15207) (assay: not given). Conditions: not given.
T2 sequence (P15207 whole entry): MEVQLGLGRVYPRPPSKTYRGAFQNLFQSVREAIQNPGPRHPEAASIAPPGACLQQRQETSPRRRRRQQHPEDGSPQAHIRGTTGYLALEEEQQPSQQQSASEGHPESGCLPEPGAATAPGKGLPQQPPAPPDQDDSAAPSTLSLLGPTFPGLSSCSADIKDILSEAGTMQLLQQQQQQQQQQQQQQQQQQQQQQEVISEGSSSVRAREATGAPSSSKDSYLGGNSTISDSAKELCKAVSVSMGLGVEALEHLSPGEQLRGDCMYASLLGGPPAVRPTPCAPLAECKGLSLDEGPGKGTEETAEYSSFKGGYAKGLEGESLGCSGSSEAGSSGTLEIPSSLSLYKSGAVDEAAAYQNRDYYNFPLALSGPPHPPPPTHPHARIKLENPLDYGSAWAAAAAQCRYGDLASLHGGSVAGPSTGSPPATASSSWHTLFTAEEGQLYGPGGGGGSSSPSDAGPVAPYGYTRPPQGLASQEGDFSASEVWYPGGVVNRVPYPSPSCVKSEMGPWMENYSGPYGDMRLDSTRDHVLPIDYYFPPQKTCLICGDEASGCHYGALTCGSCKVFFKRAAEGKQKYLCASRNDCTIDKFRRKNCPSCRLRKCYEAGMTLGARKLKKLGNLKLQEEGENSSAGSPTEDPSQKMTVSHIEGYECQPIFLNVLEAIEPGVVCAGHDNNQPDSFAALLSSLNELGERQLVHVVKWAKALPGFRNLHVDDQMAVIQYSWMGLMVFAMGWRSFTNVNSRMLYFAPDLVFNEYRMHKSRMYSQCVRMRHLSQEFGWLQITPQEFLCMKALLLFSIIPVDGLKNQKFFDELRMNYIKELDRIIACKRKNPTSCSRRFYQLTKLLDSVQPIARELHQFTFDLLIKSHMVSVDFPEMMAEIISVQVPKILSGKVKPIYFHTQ
With `CN1CCN2c3ccccc3Cc3ccccc3C2C1` (centres undefined) [MIANSERIN] the IC50 was “Not Active”.
`O=C1c2c(O)ccc(O)c2C(=O)c2c(NCCNCCO)ccc(NCCNCCO)c21` [MITOXANTRONE] was tested, and the IC50 was “Not Active”.
`CC(C)(O)c1ccccc1CC[C@@H](SCC1(CC(=O)O)CC1)c1cccc(/C=C/c2ccc3ccc(Cl)cc3n2)c1` [MONTELUKAST] was tested, and the IC50 was “Not Active”.
For `COc1c(C)c2c(c(O)c1C/C=C(\C)CCC(=O)OCCN1CCOCC1)C(=O)OC2` [MYCOPHENOLATE MOFETIL], the IC50 was “Not Active”.
`CN(N=O)C(=O)N[C@@H](C=O)[C@@H](O)[C@H](O)[C@H](O)CO` [STREPTOZOCIN] was tested, and the IC50 was “Not Active”.
For `CN(C)[C@@H]1C(O)=C(C(N)=O)C(=O)[C@@]2(O)C(O)=C3C(=O)c4c(O)cccc4[C@@](C)(O)[C@H]3C[C@@H]12` [TETRACYCLINE], the IC50 was “Not Active”.
`COc1cccc(C2(O)CCCCC2CN(C)C)c1` (centres undefined) [TRAMADOL] was tested, and the IC50 was “Not Active”.
With IVERMECTIN the IC50 was “Not Active” and the Ki was “Not Active”.

The molecules below were run against T1, Cytochrome P450 2C19 (assay: not given). Conditions: not given.
With `CC(=O)S[C@@H]1CC2=CC(=O)CC[C@]2(C)[C@H]2CC[C@@]3(C)[C@@H](CC[C@@]34CCC(=O)O4)[C@H]12` [SPIRONOLACTONE] the IC50 was 3 µM.

The molecules below were run against T3, Glucocorticoid receptor (Homo sapiens, UniProt P04150) (assay: biochemical). Conditions: not given.
T3 sequence (P04150 whole entry): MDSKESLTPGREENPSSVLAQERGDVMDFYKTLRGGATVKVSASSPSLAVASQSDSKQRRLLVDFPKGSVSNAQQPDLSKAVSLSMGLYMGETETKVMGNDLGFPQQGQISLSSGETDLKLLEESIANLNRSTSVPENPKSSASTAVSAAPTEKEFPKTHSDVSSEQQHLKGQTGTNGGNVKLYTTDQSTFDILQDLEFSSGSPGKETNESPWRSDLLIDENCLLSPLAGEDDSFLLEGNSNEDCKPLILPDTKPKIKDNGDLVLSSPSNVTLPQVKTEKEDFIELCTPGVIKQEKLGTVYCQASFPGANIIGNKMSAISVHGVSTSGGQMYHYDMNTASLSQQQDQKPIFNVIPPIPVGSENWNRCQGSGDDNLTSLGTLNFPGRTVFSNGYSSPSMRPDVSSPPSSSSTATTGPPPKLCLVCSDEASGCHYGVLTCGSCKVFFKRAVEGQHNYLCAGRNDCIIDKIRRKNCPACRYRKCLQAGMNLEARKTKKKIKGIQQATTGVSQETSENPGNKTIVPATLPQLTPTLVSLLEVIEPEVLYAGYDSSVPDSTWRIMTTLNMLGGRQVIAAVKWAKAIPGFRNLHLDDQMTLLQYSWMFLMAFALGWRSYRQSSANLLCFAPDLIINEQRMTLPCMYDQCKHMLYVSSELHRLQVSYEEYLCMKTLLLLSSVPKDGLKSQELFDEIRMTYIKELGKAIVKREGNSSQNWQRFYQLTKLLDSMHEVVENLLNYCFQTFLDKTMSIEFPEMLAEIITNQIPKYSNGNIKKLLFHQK
In the case of `CC(=O)S[C@@H]1CC2=CC(=O)CC[C@]2(C)[C@H]2CC[C@@]3(C)[C@@H](CC[C@@]34CCC(=O)O4)[C@H]12` [SPIRONOLACTONE], the IC50 is reported as 1.9 µM and the Ki is reported as 0.865 µM.
